Reference: PubChem BioAssay (NCI)
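Where inhibition never reached the appropriate level, the endpoint shown equals the highest concentration tested. Otherwise, values were interpolated linearly from a five-concentration, 48-hour dose response in 96-well plates. GI50 = concentration required for 50% inhibition of growth. At the TGI there is no net growth.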

How the values were obtained:
Assay in all cases: growth of human tumour cells (NCI), 48 h
[1] = test system: 786-0 renal
[2] = test system: A498 renal
[3] = test system: A549 NSCLC
[4] = test system: ACHN renal
[5] = test system: BT-549 breast
[6] = test system: CAKI-1 renal
[7] = test system: COLO 205 colon
[8] = test system: DU-145 prostate
[9] = test system: EKVX NSCLC
[10] = test system: HCC-2998 colon
[11] = test system: HCT-116 colon
[12] = test system: HCT-15 colon
[13] = test system: HL-60(TB) leukemia
[14] = test system: HOP-62 NSCLC
[15] = test system: HOP-92 NSCLC
[16] = test system: HS 578T breast
[17] = test system: HT29 colon
[18] = test system: IGROV1 ovarian
[19] = test system: K-562 leukemia
[20] = test system: KM12 colon
[21] = test system: LOX IMVI melanoma
[22] = test system: M14 melanoma
[23] = test system: MALME-3M melanoma
[24] = test system: MCF7 breast
[25] = test system: MDA-MB-231 breast
[26] = test system: MDA-MB-435
[27] = test system: MOLT-4 leukemia
[28] = test system: NCI-H226 lung
[29] = test system: NCI-H23 lung
[30] = test system: NCI-H460 lung
[31] = test system: NCI/ADR-RES ovarian
[32] = test system: OVCAR-3 ovarian
[33] = test system: OVCAR-4 ovarian
[34] = test system: OVCAR-8 ovarian
[35] = test system: PC-3 prostate
[36] = test system: RPMI-8226 leukemia
[37] = test system: SF-268 CNS
[38] = test system: SF-295 CNS
[39] = test system: SF-539 CNS
[40] = test system: SK-MEL-28 melanoma
[41] = test system: SK-MEL-5 melanoma
[42] = test system: SK-OV-3 ovarian
[43] = test system: SN12C renal
[44] = test system: SNB-19 CNS
[45] = test system: SR leukemia
[46] = test system: SW-620 colon
[47] = test system: T-47D breast
[48] = test system: U251 CNS
[49] = test system: UACC-257 melanoma
[50] = test system: UACC-62 melanoma
[51] = test system: UO-31 renal
[52] = test system: CCRF-CEM leukemia
[53] = test system: NCI-H522 lung
[54] = test system: OVCAR-5 ovarian
[55] = test system: SK-MEL-2 melanoma
[56] = test system: SNB-75 CNS

CO[C@@H]1[C@H](N(C)C(=O)c2ccccc2)C[C@@H]2O[C@]1(C)n1c3ccccc3c3c4c(c5c6ccccc6n2c5c31)C(=O)NC4=O
GI50 [1]: 0.744 µM
TGI [1]: > 100 µM
GI50 [2]: 0.206 µM
TGI [2]: 0.661 µM
GI50 [3]: 0.595 µM
TGI [3]: > 100 µM
GI50 [4]: 0.838 µM
TGI [4]: > 100 µM
GI50 [5]: 1.21 µM
TGI [5]: > 100 µM
GI50 [6]: 0.232 µM
TGI [6]: 2.66 µM
GI50 [7]: 0.398 µM
TGI [7]: > 100 µM
GI50 [8]: 6.81 µM
TGI [8]: > 100 µM
GI50 [9]: 0.858 µM
TGI [9]: > 100 µM
GI50 [10]: > 100 µM
TGI [10]: > 100 µM
GI50 [11]: 0.638 µM
TGI [11]: > 100 µM
GI50 [12]: 0.766 µM
TGI [12]: > 100 µM
GI50 [13]: > 100 µM
TGI [13]: > 100 µM
GI50 [14]: 0.382 µM
TGI [14]: > 100 µM
GI50 [15]: 0.173 µM
TGI [15]: > 100 µM
GI50 [16]: 0.461 µM
TGI [16]: > 100 µM
GI50 [17]: 0.745 µM
TGI [17]: > 100 µM
GI50 [18]: 0.523 µM
TGI [18]: > 100 µM
GI50 [19]: 11.1 µM
TGI [19]: > 100 µM
GI50 [20]: 0.391 µM
TGI [20]: > 100 µM
GI50 [21]: 0.654 µM
TGI [21]: > 100 µM
GI50 [22]: 0.68 µM
TGI [22]: > 100 µM
GI50 [23]: 0.732 µM
TGI [23]: > 100 µM
GI50 [24]: 1.84 µM
TGI [24]: > 100 µM
GI50 [25]: 0.48 µM
TGI [25]: > 100 µM
GI50 [26]: 0.775 µM
TGI [26]: > 100 µM
GI50 [27]: 1.96 µM
TGI [27]: > 100 µM
GI50 [28]: 0.303 µM
TGI [28]: > 100 µM
GI50 [29]: 0.842 µM
TGI [29]: > 100 µM
GI50 [30]: 0.646 µM
TGI [30]: > 100 µM
GI50 [31]: 5.75 µM
TGI [31]: > 100 µM
GI50 [32]: 6.28 µM
TGI [32]: > 100 µM
GI50 [33]: 0.7 µM
TGI [33]: > 100 µM
GI50 [34]: 94.6 µM
TGI [34]: > 100 µM
GI50 [35]: 0.562 µM
TGI [35]: > 100 µM
GI50 [36]: > 100 µM
TGI [36]: > 100 µM
GI50 [37]: 0.763 µM
TGI [37]: > 100 µM
GI50 [38]: 1.45 µM
TGI [38]: > 100 µM
GI50 [39]: 1.08 µM
TGI [39]: 59.8 µM
GI50 [40]: > 100 µM
TGI [40]: > 100 µM
GI50 [41]: 0.797 µM
TGI [41]: > 100 µM
GI50 [42]: 1.67 µM
TGI [42]: > 100 µM
GI50 [43]: 0.459 µM
TGI [43]: > 100 µM
GI50 [44]: > 100 µM
TGI [44]: > 100 µM
GI50 [45]: 0.504 µM
TGI [45]: > 100 µM
GI50 [46]: 0.732 µM
TGI [46]: > 100 µM
GI50 [47]: 0.811 µM
TGI [47]: > 100 µM
GI50 [48]: 3.6 µM
TGI [48]: > 100 µM
GI50 [49]: > 100 µM
TGI [49]: > 100 µM
GI50 [50]: 0.54 µM
TGI [50]: > 100 µM
GI50 [51]: 0.211 µM
TGI [51]: 1.46 µM

ClCCN(CCCl)c1ccc(OCc2ccccc2)cc1
GI50 [1]: 2.97 µM
TGI [1]: 22.1 µM
GI50 [2]: 3.54 µM
TGI [2]: 19.5 µM
GI50 [3]: 2.53 µM
TGI [3]: 29.8 µM
GI50 [4]: 2.1 µM
TGI [4]: > 100 µM
GI50 [5]: 2.5 µM
TGI [5]: 22.6 µM
GI50 [6]: 0.709 µM
TGI [6]: 66.5 µM
GI50 [52]: 2.36 µM
TGI [52]: 27.6 µM
GI50 [7]: 12.1 µM
TGI [7]: 32.4 µM
GI50 [8]: 3.16 µM
TGI [8]: 27.6 µM
GI50 [11]: 6.81 µM
TGI [11]: 26.9 µM
GI50 [12]: 5.11 µM
TGI [12]: 84.1 µM
GI50 [13]: 1.84 µM
TGI [13]: 23.7 µM
GI50 [14]: 4.05 µM
TGI [14]: 30.4 µM
GI50 [16]: 15.7 µM
TGI [16]: 69.4 µM
GI50 [17]: 13.4 µM
TGI [17]: 49.8 µM
GI50 [18]: 7.03 µM
TGI [18]: 64 µM
GI50 [19]: 7.02 µM
TGI [19]: > 100 µM
GI50 [20]: 14.2 µM
TGI [20]: 36.7 µM
GI50 [21]: 3.13 µM
TGI [21]: 17.4 µM
GI50 [22]: 4.16 µM
TGI [22]: 42.2 µM
GI50 [23]: 10.2 µM
TGI [23]: 34.4 µM
GI50 [24]: 3.6 µM
TGI [24]: 35.5 µM
GI50 [25]: 16.6 µM
TGI [25]: 48.6 µM
GI50 [26]: 8.16 µM
TGI [26]: 32.6 µM
GI50 [27]: 1.74 µM
TGI [27]: 40 µM
GI50 [28]: 10.3 µM
TGI [28]: 28 µM
GI50 [29]: 4.88 µM
TGI [29]: 36.6 µM
GI50 [30]: 0.603 µM
TGI [30]: 19.8 µM
GI50 [53]: 4.64 µM
TGI [53]: 21.9 µM
GI50 [31]: 5.44 µM
TGI [31]: > 100 µM
GI50 [32]: 8.54 µM
TGI [32]: 34.8 µM
GI50 [33]: 12 µM
TGI [33]: 55.4 µM
GI50 [54]: 29 µM
TGI [54]: > 100 µM
GI50 [34]: 3.3 µM
TGI [34]: 75.7 µM
GI50 [35]: 5.28 µM
TGI [35]: > 100 µM
GI50 [36]: 3.79 µM
TGI [36]: 36.5 µM
GI50 [37]: 2.07 µM
TGI [37]: 22.5 µM
GI50 [38]: 1.79 µM
TGI [38]: > 100 µM
GI50 [39]: 2.03 µM
TGI [39]: 7.44 µM
GI50 [55]: 13.3 µM
TGI [55]: 35.4 µM
GI50 [40]: 13.8 µM
TGI [40]: 40.9 µM
GI50 [41]: 6.62 µM
TGI [41]: 20.6 µM
GI50 [42]: 7.85 µM
TGI [42]: 61.4 µM
GI50 [43]: 2.76 µM
TGI [43]: 58.6 µM
GI50 [44]: 6.15 µM
TGI [44]: > 100 µM
GI50 [56]: 1.81 µM
TGI [56]: 12 µM
GI50 [45]: 0.395 µM
TGI [45]: 15.5 µM
GI50 [46]: 6.46 µM
TGI [46]: 65.8 µM
GI50 [47]: 4.4 µM
TGI [47]: 28.7 µM
GI50 [48]: 2.1 µM
TGI [48]: 18.2 µM
GI50 [49]: 6.3 µM
TGI [49]: 39.6 µM
GI50 [51]: 3.99 µM
TGI [51]: 41.4 µM
